Source: ChEMBL document CHEMBL1201862, “PubChem BioAssay data set” (2004)
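Assay format: 96-well plates, 48-hour exposure. At the GI50, growth is halved.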 Calls of active or inactive are those of the source. Cut-off read from the data, not from the text of the source: active = GI50 up to about 1.1 µM and inactive = higher.

Columns and labels:
Assay in all cases: NCI anticancer screen, dose series, 48 h
M14 = tested on: M14
NCI-H522 = tested on: NCI-H522
786-0 = tested on: 786-0
SF-539 = tested on: SF-539
RPMI-8226 = tested on: RPMI-8226
SK-OV-3 = tested on: SK-OV-3
HCC 2998 = tested on: HCC 2998
NCI-H23 = tested on: NCI-H23
SN12C = tested on: SN12C
NCI-H460 = tested on: NCI-H460
HCT-15 = tested on: HCT-15
A549 = tested on: A549
CCRF-CEM = tested on: CCRF-CEM
UACC-62 = tested on: UACC-62
ACHN = tested on: ACHN
NCI-H226 = tested on: NCI-H226
OVCAR-5 = tested on: OVCAR-5
KM12 = tested on: KM12
MDA-MB-435 = tested on: MDA-MB-435
MDA-N = tested on: MDA-N
BT-549 = tested on: BT-549
RXF 393 = tested on: RXF 393
SNB-19 = tested on: SNB-19
SNB-75 = tested on: SNB-75
U-251 = tested on: U-251
MOLT-4 = tested on: MOLT-4
SF-268 = tested on: SF-268
EKVX = tested on: EKVX
Hs-578T = tested on: Hs-578T
PC-3 = tested on: PC-3
HOP-62 = tested on: HOP-62
NCI/ADR-RES = tested on: NCI/ADR-RES
SF-295 = tested on: SF-295
UO-31 = tested on: UO-31
MDA-MB-231 = tested on: MDA-MB-231
HCT-116 = tested on: HCT-116
Malme-3M = tested on: Malme-3M
OVCAR-3 = tested on: OVCAR-3
SK-MEL-2 = tested on: SK-MEL-2
K562 = tested on: K562
A498 = tested on: A498
HOP-92 = tested on: HOP-92
SW-620 = tested on: SW-620
TK-10 = tested on: TK-10
CAKI-1 = tested on: CAKI-1
T47D = tested on: T47D
LOX IMVI = tested on: LOX IMVI
SK-MEL-28 = tested on: SK-MEL-28
HT-29 = tested on: HT-29
OVCAR-8 = tested on: OVCAR-8
IGROV-1 = tested on: IGROV-1
OVCAR-4 = tested on: OVCAR-4
SK-MEL-5 = tested on: SK-MEL-5
SR = tested on: SR
MCF7 = tested on: MCF7
UACC-257 = tested on: UACC-257
DU-145 = tested on: DU-145
COLO 205 = tested on: COLO 205

## NC(=O)NNc1nc2ccccc2c(=O)n1NC(=O)C(=O)Nc1ccc(Cl)cc1Cl
M14
  GI50: > 100 µM (inactive)
NCI-H522
  GI50: > 100 µM (inactive)
786-0
  GI50: > 100 µM (inactive)
SF-539
  GI50: > 100 µM (inactive)
RPMI-8226
  GI50: > 100 µM (inactive)
SK-OV-3
  GI50: > 100 µM (inactive)
HCC 2998
  GI50: > 100 µM (inactive)
NCI-H23
  GI50: > 100 µM (inactive)
SN12C
  GI50: > 100 µM (inactive)
NCI-H460
  GI50: > 100 µM (inactive)
HCT-15
  GI50: > 100 µM
A549
  GI50: > 100 µM (inactive)
CCRF-CEM
  GI50: > 100 µM (inactive)
UACC-62
  GI50: > 100 µM (inactive)
ACHN
  GI50: > 100 µM (inactive)
NCI-H226
  GI50: > 100 µM (inactive)
OVCAR-5
  GI50: > 100 µM (inactive)
KM12
  GI50: > 100 µM (inactive)
MDA-MB-435
  GI50: > 100 µM (inactive)
MDA-N
  GI50: > 100 µM (inactive)
BT-549
  GI50: > 100 µM (inactive)
RXF 393
  GI50: > 100 µM (inactive)
SNB-19
  GI50: 81.1 µM (inactive)
SNB-75
  GI50: > 100 µM (inactive)
U-251
  GI50: > 100 µM (inactive)
MOLT-4
  GI50: > 100 µM (inactive)
SF-268
  GI50: > 100 µM (inactive)
EKVX
  GI50: 66.8 µM (inactive)
Hs-578T
  GI50: > 100 µM (inactive)
PC-3
  GI50: > 100 µM (inactive)
HOP-62
  GI50: > 100 µM (inactive)
NCI/ADR-RES
  GI50: > 100 µM (inactive)
SF-295
  GI50: > 100 µM (inactive)
UO-31
  GI50: > 100 µM (inactive)
MDA-MB-231
  GI50: > 100 µM (inactive)
HCT-116
  GI50: > 100 µM (inactive)
Malme-3M
  GI50: > 100 µM (inactive)
OVCAR-3
  GI50: > 100 µM (inactive)
SK-MEL-2
  GI50: > 100 µM (inactive)
K562
  GI50: > 100 µM (inactive)
A498
  GI50: > 100 µM (inactive)
HOP-92
  GI50: > 100 µM (inactive)
SW-620
  GI50: > 100 µM (inactive)
TK-10
  GI50: > 100 µM (inactive)
CAKI-1
  GI50: > 100 µM (inactive)
T47D
  GI50: > 100 µM (inactive)
LOX IMVI
  GI50: > 100 µM (inactive)
SK-MEL-28
  GI50: > 100 µM (inactive)
HT-29
  GI50: > 100 µM (inactive)
OVCAR-8
  GI50: > 100 µM (inactive)
IGROV-1
  GI50: 64 µM (inactive)
OVCAR-4
  GI50: > 100 µM (inactive)
SK-MEL-5
  GI50: > 100 µM (inactive)
SR
  GI50: 65.2 µM (inactive)
MCF7
  GI50: > 100 µM (inactive)
UACC-257
  GI50: > 100 µM (inactive)

## CC(C)C1CCC(=O)CC1CCCCC1CC(=O)CC1O[Si](C)(C)C(C)(C)C (stereo not drawn)
M14
  GI50: 6.1 µM (inactive)
NCI-H522
  GI50: 2.1 µM (inactive)
786-0
  GI50: 3.89 µM (inactive)
SF-539
  GI50: 4.66 µM (inactive)
RPMI-8226
  GI50: 1.95 µM (inactive)
SK-OV-3
  GI50: 11.9 µM (inactive)
HCC 2998
  GI50: 7.03 µM (inactive)
NCI-H23
  GI50: 15.5 µM (inactive)
SN12C
  GI50: 5.5 µM (inactive)
NCI-H460
  GI50: 7.46 µM (inactive)
HCT-15
  GI50: 3.44 µM
A549
  GI50: 6.03 µM (inactive)
CCRF-CEM
  GI50: 0.955 µM (active)
UACC-62
  GI50: 4.45 µM (inactive)
ACHN
  GI50: 4.3 µM (inactive)
NCI-H226
  GI50: 3.9 µM (inactive)
OVCAR-5
  GI50: 11.1 µM (inactive)
DU-145
  GI50: 17 µM (inactive)
KM12
  GI50: 2.76 µM (inactive)
MDA-MB-435
  GI50: 2.95 µM (inactive)
MDA-N
  GI50: 4.16 µM (inactive)
BT-549
  GI50: 4.25 µM (inactive)
RXF 393
  GI50: 4.67 µM (inactive)
SNB-19
  GI50: 3.98 µM (inactive)
SNB-75
  GI50: 13.2 µM (inactive)
U-251
  GI50: 2.32 µM (inactive)
MOLT-4
  GI50: 1.89 µM (inactive)
SF-268
  GI50: 2.54 µM (inactive)
EKVX
  GI50: 15.7 µM (inactive)
Hs-578T
  GI50: 3.03 µM (inactive)
PC-3
  GI50: 7.53 µM (inactive)
HOP-62
  GI50: 7.06 µM (inactive)
NCI/ADR-RES
  GI50: 4.25 µM (inactive)
SF-295
  GI50: 9.62 µM (inactive)
UO-31
  GI50: 7.66 µM (inactive)
MDA-MB-231
  GI50: 14.6 µM (inactive)
HCT-116
  GI50: 3.18 µM (inactive)
Malme-3M
  GI50: 6.76 µM (inactive)
OVCAR-3
  GI50: 14.4 µM (inactive)
SK-MEL-2
  GI50: 6.44 µM (inactive)
K562
  GI50: 2.76 µM (inactive)
A498
  GI50: 8.09 µM (inactive)
HOP-92
  GI50: 3.3 µM (inactive)
SW-620
  GI50: 4.91 µM (inactive)
TK-10
  GI50: 10.5 µM (inactive)
CAKI-1
  GI50: 5.58 µM (inactive)
T47D
  GI50: 14.2 µM (inactive)
LOX IMVI
  GI50: 2.84 µM (inactive)
SK-MEL-28
  GI50: 5.92 µM (inactive)
HT-29
  GI50: 3 µM (inactive)
OVCAR-8
  GI50: 3.83 µM (inactive)
IGROV-1
  GI50: 2.84 µM (inactive)
OVCAR-4
  GI50: 12.7 µM (inactive)
SK-MEL-5
  GI50: 3.05 µM (inactive)
MCF7
  GI50: 4.12 µM (inactive)
COLO 205
  GI50: 4.21 µM (inactive)
UACC-257
  GI50: 6.4 µM (inactive)
